Calls of active or inactive are those of the source. The rule behind the calls is not given here.

Perilipin-1 (Homo sapiens), sequence (O60240 whole entry, looked up, the tested form may be a part): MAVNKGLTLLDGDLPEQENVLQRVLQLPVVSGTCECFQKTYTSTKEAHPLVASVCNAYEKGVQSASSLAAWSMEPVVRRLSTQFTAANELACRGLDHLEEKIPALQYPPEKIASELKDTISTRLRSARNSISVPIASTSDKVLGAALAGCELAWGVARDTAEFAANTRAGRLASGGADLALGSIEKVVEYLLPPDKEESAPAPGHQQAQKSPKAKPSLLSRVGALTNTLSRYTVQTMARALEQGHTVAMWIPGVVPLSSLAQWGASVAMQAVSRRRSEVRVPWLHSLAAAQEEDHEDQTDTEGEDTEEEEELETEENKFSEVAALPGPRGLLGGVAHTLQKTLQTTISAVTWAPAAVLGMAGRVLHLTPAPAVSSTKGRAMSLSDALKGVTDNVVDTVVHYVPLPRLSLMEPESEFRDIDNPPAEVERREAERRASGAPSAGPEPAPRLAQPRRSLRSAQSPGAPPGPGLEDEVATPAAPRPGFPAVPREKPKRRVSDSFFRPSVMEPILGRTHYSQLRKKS

The test has as its target Perilipin-1 (Homo sapiens) (UniProt O60240). Put plainly: inhibitors of ABHD5-PLIN1 binding, dose response, counter-screen for ABHD5-PLIN5 interaction inhibitor project, biochemical, luminescence (AID 651672).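 Note: split Gaussia luciferase complementation between ABHD5 and PLIN1 fusion fragments.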
As for `O=C(/C(=C/O)N=Nc1ccc(Cl)cc1)c1ccncc1`, the IC50 is 7.4 µM.

For the compound `Cc1oc2c(c1C(=O)c1ccc(Cl)cc1)C(=O)C(=O)c1ccccc1-2`, the IC50 was 3.99 µM.

Consider `CCOC(=O)c1c(NC(=O)/C=C/C(=O)O)sc(C)c1-c1ccc(C(C)(C)C)cc1`, for which the IC50 was 4.81 µM.

With `COc1ccc(NC(=O)C(c2ccnc3ccccc23)n2c(=O)c(-c3ccco3)nc3ccccc32)cc1` (stereo not given), the IC50 was 4.76 µM.

For the compound `CC1=CC(C)(C)Nc2ccc(OC(=O)CN3C(=O)C4CCCCC4C3=O)cc21` (stereo not given), the IC50 is 2.3 µM.

`CSc1nnc(NC(=O)c2nc(S(=O)(=O)Cc3ccccc3F)ncc2Cl)s1`: the IC50 is 2.16 µM.

With `CN(C)CCOC1(Cc2ccc(F)cc2)CCC(C(C)(C)C)CC1` (stereo not given), the IC50 is 9.95 µM.

Regarding `Cc1ccc(/C=C/C(=O)c2cc(Br)ccc2OC(=O)c2ccco2)cc1`, the 50% inhibitory concentration (IC50) is 0.684 µM.

For the compound `O=C(NCc1ccccc1)C(c1ccccc1F)n1c(=O)c(-c2ccco2)nc2ccccc21` (stereo not given), the IC50 was 2.31 µM.

Regarding `C#CCN(C[C@@H]1[C@@H](OC(=O)NC2CCCC2)[C@@H](OC(=O)NC2CCCC2)Cn2c(=O)ccc(=O)n21)S(=O)(=O)c1ccc(C)cc1`, the IC50 was 4.75 µM.

As for `Cc1nc(-c2ccccc2)sc1C(=O)/C=C/c1ccccc1`, the IC50 was 2.77 µM.

Regarding `CC1=CC(C)(C)Nc2ccc(OC(=O)C(C)N3C(=O)c4ccccc4C3=O)cc21` (stereo not given), the IC50 was 1.82 µM.

As for `COc1cc(C(C)=O)ccc1OCc1cn(CC(=O)c2ccc(O)cc2)nn1`, the IC50 was 4.59 µM.

For `Cc1ccc(O)c(C(=O)/C=C/c2ccc3c(c2)OCCCO3)c1`, the 50% inhibitory concentration (IC50) is 4.63 µM.

For `CC(C)(C)NC(=O)C(c1ccnc2ccccc12)n1c(=O)c(-c2ccco2)nc2ccccc21` (stereo not given), the IC50 is 4.29 µM.

Consider `O=C(NCc1ccccc1)C(c1cc2ccccc2o1)n1c(=O)c(-c2ccco2)nc2ccccc21` (stereo not given), for which the 50% inhibitory concentration (IC50) is 2.31 µM.

For the compound `CCN(CC)CCNC(=O)c1ccc(NC(=O)c2cn(-c3ccccc3)nc2-c2cccs2)cc1`, the IC50 result is “inactive”.

For the compound `CCN(CCCc1ccccc1)CCCc1ccccc1`, the IC50 is 2.26 µM.

For `CN1CCC(=C2c3ccccc3CC(=O)c3sccc32)CC1`, the IC50 result was “inactive”.

With `CSc1nnc(NC(=O)c2nc(S(=O)(=O)Cc3ccc(C)cc3)ncc2Cl)s1`, the IC50 is 3.1 µM.

For the origin of these results see PubChem BioAssay AID651672 (The Scripps Research Institute Molecular Screening Center, 2012).
